Experimental findings from publication PMC10132805 (Nature Communications, 2023) are described below.

By Kd is commonly meant the constant that tells how readily two partners part at equilibrium.

Holding throughout (type): binding
One assay addresses CEP55 EABR (Homo sapiens, UniProt Q53EZ4). In words: biochemical. As to conditions: for KD: pH 7.5.
The subject of assay [1] is 139 human bait protein domains. As to conditions: for specificity / RiboVD_mean_counts / RiboVD_count_proportions / peptide_counts_proportion: bait YAP1 WW-2 (P46937, 228-266); for RiboVD_mean_counts: mean sequencing counts over replicate selections; for RiboVD_count_proportions: proportion of counts; for motif_found: motif benchmarking set.
The target in the next assay is AP2M1 MHD (Homo sapiens, UniProt Q96CW1). The assay is described as follows: biochemical.
Chain of AP2M1 MHD (Q96CW1 170-434 limits assumed): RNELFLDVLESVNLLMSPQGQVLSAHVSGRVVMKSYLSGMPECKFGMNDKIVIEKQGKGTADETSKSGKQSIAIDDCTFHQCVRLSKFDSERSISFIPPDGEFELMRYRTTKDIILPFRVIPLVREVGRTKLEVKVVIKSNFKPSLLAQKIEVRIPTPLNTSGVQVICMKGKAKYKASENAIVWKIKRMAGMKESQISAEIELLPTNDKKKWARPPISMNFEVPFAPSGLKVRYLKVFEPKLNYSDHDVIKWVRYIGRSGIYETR
In the next assay the target is CLTC NTD (Homo sapiens, UniProt Q00610). The assay is described as follows: biochemical.
Chain of CLTC NTD (Q00610 2-479 limits assumed): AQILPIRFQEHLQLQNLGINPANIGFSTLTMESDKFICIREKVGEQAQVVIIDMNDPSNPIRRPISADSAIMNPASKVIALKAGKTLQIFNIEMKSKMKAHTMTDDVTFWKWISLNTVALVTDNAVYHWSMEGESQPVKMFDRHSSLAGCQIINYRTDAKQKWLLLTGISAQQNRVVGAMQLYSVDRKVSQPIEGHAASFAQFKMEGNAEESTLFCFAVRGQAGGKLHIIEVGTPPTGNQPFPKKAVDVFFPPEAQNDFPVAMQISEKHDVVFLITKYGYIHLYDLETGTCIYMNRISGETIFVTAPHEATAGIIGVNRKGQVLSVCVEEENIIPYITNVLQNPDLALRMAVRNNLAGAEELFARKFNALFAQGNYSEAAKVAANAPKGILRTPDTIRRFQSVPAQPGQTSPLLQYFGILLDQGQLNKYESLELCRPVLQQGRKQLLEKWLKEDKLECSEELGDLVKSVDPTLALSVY
In a further assay the target is NEDD4 WW2 (Homo sapiens, UniProt P46934). In words: biochemical.
Chain of NEDD4 WW2 (P46934 767-800 limits assumed): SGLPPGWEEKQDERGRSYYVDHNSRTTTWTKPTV
The target of another assay is NEDD4 WW4 (Homo sapiens, UniProt P46934). The assay is described as follows: biochemical.
Chain of NEDD4 WW4 (P46934 892-925 limits assumed): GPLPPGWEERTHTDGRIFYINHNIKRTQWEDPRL
The next assay addresses ALIX V (Homo sapiens, UniProt Q8WUM4). In words: biochemical.
The target in another assay is PABPC1 PABC (Homo sapiens, UniProt P11940). The assay is described as follows: biochemical.
Chain of PABPC1 PABC (P11940 542-619 limits assumed): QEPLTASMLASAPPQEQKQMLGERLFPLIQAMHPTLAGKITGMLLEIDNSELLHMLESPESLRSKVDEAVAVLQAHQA
The mark [2] stands for this setting: replicate 1 (first entry of cell).
Where [3] appears, read: replicate 2 (second entry of cell).
Where [4] appears, read: replicate 3 (third entry of cell).

“Also recorded” adds a separate entry of the source. Read-outs that look alike come from different tables or passages of the source. Residues, ends and D or L forms follow the SMILES beside them. No end group written: not given here. *: point of attachment. FITC = O=C1OC2(c3ccc(O)cc3Oc3cc(O)ccc32)c2ccc(NC(=S)*)cc21

Chain of ALIX V (Q8WUM4 360-702): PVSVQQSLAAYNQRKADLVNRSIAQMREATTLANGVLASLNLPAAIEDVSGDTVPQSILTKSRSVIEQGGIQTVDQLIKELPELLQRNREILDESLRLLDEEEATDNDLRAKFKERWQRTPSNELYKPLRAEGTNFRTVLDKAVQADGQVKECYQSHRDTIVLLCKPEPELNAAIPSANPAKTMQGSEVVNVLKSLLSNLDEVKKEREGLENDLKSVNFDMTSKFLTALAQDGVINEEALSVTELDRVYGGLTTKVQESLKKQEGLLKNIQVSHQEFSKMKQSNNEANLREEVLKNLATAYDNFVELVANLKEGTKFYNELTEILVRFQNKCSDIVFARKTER
Chain of CEP55 EABR (Q53EZ4 160-214 limits assumed): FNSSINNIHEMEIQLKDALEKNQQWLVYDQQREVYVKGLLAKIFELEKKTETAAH

On to `CC(C)[C@H](NC(=O)[C@H](C)NC(=O)[C@@H](N)[C@@H](C)O)C(=O)N[C@@H](C)C(=O)N1CCC[C@H]1C(=O)N1CCC[C@H]1C(=O)N[C@@H](C)C(=O)N1CCC[C@H]1C(=O)N[C@H](C(=O)N[C@@H](Cc1ccc(O)cc1)C(=O)N[C@@H](CCCNC(=N)N)C(=O)N[C@@H](CO)C(=O)N[C@@H](C)C(=O)N[C@@H](CCC(=O)O)C(=O)N[C@@H](C)C(=O)N[C@@H](Cc1c[nH]cn1)C(=O)O)C(C)C` [NP 602-617 (REBOV)], for which the Kd at CEP55 EABR turned out to be 2.18 µM. Turning to VTVPTAPPAYADIGYP, in assay [1], the specificity stood at 0.918, the RiboVD_mean_counts is 10451.3 and the RiboVD_count_proportions came out at 0.1499. The same compound had a peptide_counts_proportion in assay [1] (setting [2]) of 0.298. Besides, the peptide_counts_proportion in assay [1] (setting [3]) is recorded as 0.131. In assay [1] (setting [4]), the peptide_counts_proportion was 0.021. Take “LAVGPPSLNYIPPVLQ [TEX14 792-807 (Human)]”: at CEP55 EABR, the Kd was ~0.3 µM and the KD entry is “same order or tighter as the probe; also recorded: Due to the limitatons of our experimental setup we could not calculate the KD values for this peptide, however our experiments suggest very high affinity (mid to low nanomolar)”. “PTDSNFYRALMDEEDM [EGFR 992-1007 (Human)]” had a Kd at AP2M1 MHD of 2.4 µM. For the compound “VPVDTNLIEFDTNYAT [ARRB2 367-382 (Human)]”, at CLTC NTD, binding was put at a Kd of 40 µM. Regarding `C[C@H](NC(=O)[C@H](CO)NC(=O)[C@H](Cc1ccc(O)cc1)NC(=O)[C@@H]1CCCN1C(=O)[C@@H]1CCCN1C(=O)[C@@H]1CCCN1C(=O)[C@H](CO)NC(=O)[C@H](CC(=O)O)NC(=O)[C@@H](NC(=S)Nc1ccc2c(c1)C(=O)OC21c2ccc(O)cc2Oc2cc(O)ccc21)[C@@H](C)O)C(=O)NCC(=O)O` [FITC - UL56 46-55 (HHV2)] ({FITC}-TDSPPPYSAG-OH), the figures for the Kd on NEDD4 WW2 and on NEDD4 WW4 were 16 µM and 82 µM, respectively. PPPVLYPNLAELENYM [SDCBP2 39-54 (Human)] had a Kd at ALIX V of 2.1 µM. Regarding NSMLNPNAVPFQPSPQY [N 2-17 (BeV)], on PABPC1 PABC, the “affinity compared to the peptide from the endogenous PABP inhibitor PAIP2_108-123” value is listed as “ten-fold weaker”. Take “EPDQEPPPPYQEQVPVPVYHPTPSQ [RNF11 31-65 (Human)]”: the equilibrium dissociation constant (Kd) turned out to be 15 µM on NEDD4 WW2 and 35 µM on NEDD4 WW4. In assay [1], LPPPEYVPLHEISSKG yielded a specificity of 0.991, a RiboVD_mean_counts of 729 and a RiboVD_count_proportions of 0.02141. This compound also showed a peptide_counts_proportion in assay [1] (setting [2]) of 0.029. The peptide_counts_proportion in assay [1] (setting [3]) amounted to 0.006. Besides, in assay [1] (setting [4]), the peptide_counts_proportion was found to be 0.029. “VDEEKGLYPNLKLTEPTAPMIHNYM [Nsp4 118-142 (BAV)]”: on ALIX V, binding was characterised by a dissociation constant (Kd) of 160 µM. With `CC[C@H](C)[C@H](NC(=O)[C@H](CC(=O)O)NC(=O)[C@H](C)NC(=O)[C@H](Cc1ccc(O)cc1)NC(=O)[C@H](C)NC(=O)[C@@H]1CCCN1C(=O)[C@@H]1CCCN1C(=O)[C@H](C)NC(=O)[C@@H](NC(=O)[C@@H]1CCCN1C(=O)[C@@H](NC(=O)[C@@H](NC(=O)[C@@H](NC(=O)[C@H](CCCNC(=N)N)NC(=O)[C@H](CCCNC(=N)N)NC(=O)[C@@H](N)CCSC)C(C)C)[C@@H](C)O)C(C)C)[C@@H](C)O)C(=O)NCC(=O)N[C@@H](Cc1ccc(O)cc1)C(=O)N1CCC[C@H]1C(=O)N[C@@H](CCSC)C(=O)O` [VP40 1-20 (SEBOV)], the Kd on NEDD4 WW2 came to 22 µM; on NEDD4 WW4 it was 68 µM. In assay [1], AELNPPPYNHSYESLH registered a specificity of 0.98, a RiboVD_mean_counts of 1834 and a RiboVD_count_proportions of 0.03738. Further, the peptide_counts_proportion in assay [1] (setting [2]) is recorded as 0.005. In assay [1] (setting [3]), this compound showed a peptide_counts_proportion of 0.079. For the same compound, in assay [1] (setting [4]), the peptide_counts_proportion is given as 0.028. Regarding TAPPAYADIGYPMSML, in assay [1], the specificity was determined as 0.889, the RiboVD_mean_counts was found to be 4550 and the RiboVD_count_proportions worked out at 0.1419. This compound returned a peptide_counts_proportion in assay [1] (setting [2]) of 0.002. Besides, in assay [1] (setting [3]), the peptide_counts_proportion was determined as 0.008. This compound registered a peptide_counts_proportion in assay [1] (setting [4]) of 0.416. As for `CC(C)C[C@H](NC(=O)[C@H](CO)NC(=O)[C@@H](NC(=O)[C@H](CC(C)C)NC(=O)[C@@H]1CCCN1C(=O)[C@@H]1CCCN1C(=O)[C@H](Cc1ccc(O)cc1)NC(=O)[C@H](CC(C)C)NC(=O)[C@H](CO)NC(=S)Nc1ccc2c(c1)C(=O)OC21c2ccc(O)cc2Oc2cc(O)ccc21)[C@@H](C)O)C(=O)N[C@@H](CCCNC(=N)N)C(=O)O` [FITC - gag 493-502 (HIV1)] ({FITC}-SLYPPLTSLR-OH), binding at ALIX V was put at a Kd of 2.6 µM. Consider `CC(C)C[C@H](NC(=O)CNC(=O)[C@H](C)NC(=O)[C@@H](N)CO)C(=O)N[C@@H](CC(N)=O)C(=O)N1CCC[C@H]1C(=O)N[C@@H](C)C(=O)N[C@@H](C)C(=O)N[C@H](C(=O)N1CCC[C@H]1C(=O)N[C@@H](Cc1ccccc1)C(=O)N[C@H](C(=O)N1CCC[C@H]1C(=O)N[C@@H](CCCCN)C(=O)N[C@@H](CC(N)=O)C(=O)N[C@@H](CCC(N)=O)C(=O)N[C@@H](Cc1ccc(O)cc1)C(=O)O)C(C)C)C(C)C` [P/V/C 183-198 (HeV)], for which, at PABPC1 PABC, the “affinity compared to the peptide from the endogenous PABP inhibitor PAIP2_108-123” value was “ten-fold weaker”.

The compound MSSLYPSLEDLKVDQA [SDCBP2 1-16 (Human)] gave a Kd on ALIX V of 0.29 µM. On to “QAQGPPYPTYPGYPGY [PDCD6IP 797-812 (Human)]”, for which, on CEP55 EABR, the dissociation constant Kd is ~0.3 µM and the KD entry was “same order or tighter as the probe; also recorded: Due to the limitatons of our experimental setup we could not calculate the KD values for this peptide, however our experiments suggest very high affinity (mid to low nanomolar)”. On to EPDQEPPPPYQEQVPV [RNF11 31-56 (Human)], for which the values for the equilibrium dissociation constant (Kd) on NEDD4 WW2 and on NEDD4 WW4 were 13 µM and 44 µM, respectively. For the compound “GLRRTDLVDFVNGTVDY [RdRp 1840-1855 (SVV)]”, the KD result on CLTC NTD (pH 7.5) is on record as “Low affinity binder”. Regarding MSFGSF [P03317_1835_1840], in assay [1] (bait G3BP2_NTF2_1_Q9UN86_1_139), the motif_found entry was “TRUE”.

Consider P36328_1787_1804, for which, in assay [1] (bait CD2AP_SH3_1_Q9Y5K6_2_58), the motif_found entry is reported as “TRUE”. Take `C[C@H](NC(=O)[C@H](CCC(N)=O)NC(=S)Nc1ccc2c(c1)C(=O)OC21c2ccc(O)cc2Oc2cc(O)ccc21)C(=O)N[C@@H](CCC(N)=O)C(=O)NCC(=O)N1CCC[C@H]1C(=O)N1CCC[C@H]1C(=O)N[C@@H](Cc1ccc(O)cc1)C(=O)N1CCC[C@H]1C(=O)N[C@H](C(=O)N[C@@H](Cc1ccc(O)cc1)C(=O)N1CCC[C@H]1C(=O)NCC(=O)N[C@@H](Cc1ccc(O)cc1)C(=O)O)[C@@H](C)O` [FITC - PDCD6IP 797-809 (Human)] ({FITC}-QAQGPPYPTYPGY-OH): binding at CEP55 EABR was characterised by a dissociation constant (Kd) of 0.31 µM. At PABPC1 PABC, `CC(C)C[C@H](NC(=O)[C@H](CC(N)=O)NC(=O)[C@H](CO)NC(=O)[C@H](CCCCN)NC(=S)Nc1ccc2c(c1)C(=O)OC21c2ccc(O)cc2Oc2cc(O)ccc21)C(=O)N[C@@H](CC(N)=O)C(=O)N1CCC[C@H]1C(=O)N[C@@H](CC(N)=O)C(=O)N[C@@H](C)C(=O)N[C@@H](CCCCN)C(=O)N[C@@H](CCC(=O)O)C(=O)N[C@@H](Cc1ccccc1)C(=O)N[C@H](C(=O)N1CCC[C@H]1C(=O)NCC(=O)N[C@H](C(=O)N[C@@H](CCCCN)C(=O)O)C(C)C)C(C)C` [FITC - PAIP2 108-123 (Human), reference compound] ({FITC}-KSNLNPNAKEFVPGVK-OH) displayed a dissociation constant (Kd) of 0.38 µM. In the case of `CC[C@H](C)[C@H](NC(=O)[C@H](CC(C)C)NC(=O)[C@H](CC(N)=O)NC(=O)[C@@H](NC(=O)[C@H](CC(=O)O)NC(=S)Nc1ccc2c(c1)C(=O)OC21c2ccc(O)cc2Oc2cc(O)ccc21)[C@@H](C)O)C(=O)N[C@@H](CCC(=O)O)C(=O)N[C@@H](Cc1ccccc1)C(=O)N[C@@H](CC(=O)O)C(=O)N[C@H](C(=O)N[C@@H](CC(N)=O)C(=O)O)[C@@H](C)O` [FITC - ARRB2 370-379 (Human)] ({FITC}-DTNLIEFDTN-OH), the Kd on CLTC NTD came to 26 µM. With `CC(C)C[C@H](NC(=O)[C@H](C)NC(=O)[C@@H]1CCCN1C(=O)[C@@H]1CCCN1C(=O)CNC(=O)[C@H](CO)NC(=O)[C@H](C)NC(=O)[C@@H](N)[C@@H](C)O)C(=O)N[C@@H](CCC(=O)O)C(=O)N[C@@H](Cc1c[nH]c2ccccc12)C(=O)N[C@@H](CO)C(=O)N[C@@H](C)C(=O)N[C@H](C(=O)N[C@@H](CC(N)=O)C(=O)N[C@@H](CCC(=O)O)C(=O)N[C@@H](CCCCN)C(=O)O)[C@@H](C)O` [P 177-192 (RABV)], the dissociation constant (Kd) on CEP55 EABR is 22.3 µM. Regarding PVPAPRKPTPAPRTAFR [P08411_1764_1780], the motif_found result in assay [1] (bait CD2AP_SH3_1_Q9Y5K6_2_58) is on record as “TRUE”.
